Measured values: patent publication US20130259835A1, “BIFIDOBACTERIUM ADOLESCENTIS SPM0212 HAVING ANTIVIRAL ACTIVITY FOR HEPATITIS B VIRUS, AND PHARMACEUTICAL COMPOSITION FOR PREVENTING AND TREATING HEPATITIS B COMPRISING THEREOF” (SAHMYOOK UNIVERSITY INDUSTRY-ACADEMIC COOPERATION, priority 2011, published 2013)

Legend:
Test in all cases: Antibiotics sensitivity, agar dilution MIC
Format in all cases: cell-based
[1] = system: Bifidobacterium longum KCTC3128; conditions: strain KCTC3128; Table 5
Description: (§1) Antibiotics sensitivity test was performed for comparative analysis of phenotypes of the lactobacillus strain separated in Example 1 and standard strains purchased from KCTC. In order to find out the minimum inhibitory concentrations (MICs) of 18 kinds of antibiotics (ampicillin, mupirocin, amoxicillin/clavulanic acid, oxacillin, cefonicid, cefazolin, ceftazidime, cefotaxime, ceftriaxone, tigecyclin, streptomycin, vancomycin, teicoplanin, daptomycin, linezolid, clindamycin, quinupristin/dalfopristin and tobramycin), agar dilution method was performed according to the Clinical and Laboratory Standards Institute (CLSI, 2003), and the results were listed in Tables 4 and 5.

[2] = system: Bifidobacterium adolescentis SPM1005; conditions: strain SPM1005; Table 5
Description: as §1

[3] = system: Bifidobacterium longum SPM1206; conditions: strain SPM1206; Table 5
Description: as §1

[4] = system: Bifidobacterium pseudocatenulatum SPM1309; conditions: strain SPM1309; Table 5
Description: as §1

[5] = system: Bifidobacterium adolescentis SPM1608; conditions: strain SPM1608; Table 5
Description: as §1

[6] = system: Bifidobacterium adolescentis SPM0308; conditions: strain SPM0308; Table 5
Description: as §1

[7] = system: Bifidobacterium adolescentis SPM0214; conditions: strain SPM0214; Table 5
Description: as §1

[8] = system: Bifidobacterium pseudocatenulatum SPM1204; conditions: strain SPM1204; Table 5
Description: as §1

[9] = system: Bifidobacterium pseudocatenulatum KCTC3223; conditions: strain KCTC3223; Table 5
Description: as §1

[10] = system: Bifidobacterium adolescentis SPM1605; conditions: strain SPM1605; Table 5
Description: as §1

[11] = system: Bifidobacterium longum SPM1205; conditions: strain SPM1205; Table 5
Description: as §1

[12] = system: Bifidobacterium adolescentis SPM1606; conditions: strain SPM1606; Table 5
Description: as §1

[13] = system: Bifidobacterium adolescentis SPM1604; conditions: strain SPM1604; Table 5
Description: as §1

[14] = system: Bifidobacterium adolescentis SPM0212; conditions: strain SPM0212; Table 5
Description: as §1

[15] = system: Bifidobacterium adolescentis SPM1601; conditions: strain SPM1601; Table 5
Description: as §1

[16] = system: Bifidobacterium adolescentis KCTC3352; conditions: strain KCTC3352; Table 5
Description: as §1

[17] = system: Bifidobacterium adolescentis SPM1307-A; conditions: strain SPM1307-A; Table 5
Description: as §1

[18] = system: Bifidobacterium longum SPM1207; conditions: strain SPM1207; Table 5
Description: as §1

Compound	Minimum inhibitory concentrations (MICs) [1] [μl/Ml]	Minimum inhibitory concentrations (MICs) [2] [μl/Ml]	Minimum inhibitory concentrations (MICs) [3] [μl/Ml]	Minimum inhibitory concentrations (MICs) [4] [μl/Ml]	Minimum inhibitory concentrations (MICs) [5]	Minimum inhibitory concentrations (MICs) [6]	Minimum inhibitory concentrations (MICs) [7] [μl/Ml]	Minimum inhibitory concentrations (MICs) [8] [μl/Ml]	Minimum inhibitory concentrations (MICs) [9] [μl/Ml]	Minimum inhibitory concentrations (MICs) [10] [μl/Ml]	Minimum inhibitory concentrations (MICs) [11]	Minimum inhibitory concentrations (MICs) [12]	Minimum inhibitory concentrations (MICs) [13]	Minimum inhibitory concentrations (MICs) [14]	Minimum inhibitory concentrations (MICs) [15] [μl/Ml]	Minimum inhibitory concentrations (MICs) [16] [μl/Ml]	Minimum inhibitory concentrations (MICs) [17] [μl/Ml]	Minimum inhibitory concentrations (MICs) [18]
CCC[C@@H]1C[C@@H](C(=O)N[C@@H]([C@H]2O[C@H](SC)[C@H](O)[C@@H](O)[C@H]2O)[C@H](C)Cl)N(C)C1 [CLI, clindamycin]	4	32	8	8	8 μl/Ml	32 μl/Ml	32	>128	8	4	4 μl/Ml	4 μl/Ml	4 μl/Ml	4 μl/Ml	16	4	4	
CCCCCCCCCC(=O)N[C@@H](Cc1c[nH]c2ccccc12)C(=O)N[C@H](CC(N)=O)C(=O)N[C@@H](CC(=O)O)C(=O)N[C@@H]1C(=O)NCC(=O)N[C@@H](CCCN)C(=O)N[C@@H](CC(=O)O)C(=O)N[C@H](C)C(=O)N[C@@H](CC(=O)O)C(=O)NCC(=O)N[C@H](CO)C(=O)N[C@@H]([C@H](C)CC(=O)O)C(=O)N[C@@H](CC(=O)c2ccccc2N)C(=O)O[C@@H]1C [DAP, daptomycin]	16	1	4	4	8 μl/Ml	0.25 μl/Ml	2	2	16	4	2 μl/Ml	0.12 μl/Ml	4 μl/Ml	4 μl/Ml	4	16	8	
CC(=O)NC[C@H]1CN(c2ccc(N3CCOCC3)c(F)c2)C(=O)O1 [LNZ, linezolid]	8	4	1	2	8 μl/Ml	2 μl/Ml	0.25	8	8	4	2 μl/Ml	2 μl/Ml	1 μl/Ml	8 μl/Ml	8	8	8	
[H]/N=C(/N)N[C@H]1[C@H](O)[C@@H](O)[C@H](O[C@@H]2O[C@@H](C)[C@](O)(C=O)[C@H]2O[C@@H]2O[C@@H](CO)[C@H](O)[C@@H](O)[C@@H]2NC)[C@@H](N/C(N)=N\[H])[C@@H]1O [STR, streptomycin]	128	32	8	32	32 μl/Ml	32 μl/Ml	32	128	128	32	8 μl/Ml	0.25 μl/Ml	≦0.06 μl/Ml	128 μl/Ml	64	128	64	
CN(C)c1cc(NC(=O)CNC(C)(C)C)c(O)c2c1C[C@H]1C[C@H]3[C@H](N(C)C)C(O)=C(C(N)=O)C(=O)[C@@]3(O)C(O)=C1C2=O [TIG, tigecyclin]	0.5	0.5	0.12	0.25	≦0.06 μl/Ml	≦0.06 μl/Ml	0.25	0.5	0.5	0.5	≦0.06 μl/Ml	0.12 μl/Ml	≦0.06 μl/Ml	≦0.06 μl/Ml	0.25	0.5	0.25	
NC[C@H]1O[C@H](O[C@H]2[C@H](O)[C@@H](O[C@H]3O[C@H](CO)[C@@H](O)[C@H](N)[C@H]3O)[C@H](N)C[C@@H]2N)[C@H](N)C[C@@H]1O [TOB, tobramycin]	>128	32	32	>128	128 μl/Ml	32 μl/Ml	32	128	>128	16	4 μl/Ml	16 μl/Ml	16 μl/Ml	>128 μl/Ml	32	>128	64	
CN[C@H](CC(C)C)C(=O)N[C@H]1C(=O)N[C@@H](CC(N)=O)C(=O)N[C@H]2C(=O)N[C@H]3C(=O)N[C@H](C(=O)N[C@H](C(=O)O)c4cc(O)cc(O)c4-c4cc3ccc4O)[C@H](O)c3ccc(c(Cl)c3)Oc3cc2cc(c3O[C@@H]2O[C@H](CO)[C@@H](O)[C@H](O)[C@H]2O[C@H]2C[C@](C)(N)[C@H](O)[C@H](C)O2)Oc2ccc(cc2Cl)[C@H]1O [VAN, vancomycin]	4	2	2	2	2 μl/Ml	2 μl/Ml	2	2	4	2	2 μl/Ml	≦0.06 μl/Ml	≦0.06 μl/Ml	2 μl/Ml	2	2	2	2 μl/Ml
teicoplanin [TEC]	2	1	1	0.25	2 μl/Ml	2 μl/Ml	2	2	2	1	0.5 μl/Ml	≦0.06 μl/Ml	≦0.06 μl/Ml	2 μl/Ml	2	2	0.5	1
